We go through 23 compounds from patent US12617758B2, “Quinazoline derivative having FLT3 inhibitory activity, and use thereof” (INDUSTRY-UNIVERSITY COOPERATION FOUNDATION HANYANG …, priority 2020, dated 2026).

Structures are written as SMILES.

Common to all, as to format: biochemical
Assay [1] addresses T1, FLT3 (Homo sapiens, UniProt P36888).
T1 sequence (P36888 27-993): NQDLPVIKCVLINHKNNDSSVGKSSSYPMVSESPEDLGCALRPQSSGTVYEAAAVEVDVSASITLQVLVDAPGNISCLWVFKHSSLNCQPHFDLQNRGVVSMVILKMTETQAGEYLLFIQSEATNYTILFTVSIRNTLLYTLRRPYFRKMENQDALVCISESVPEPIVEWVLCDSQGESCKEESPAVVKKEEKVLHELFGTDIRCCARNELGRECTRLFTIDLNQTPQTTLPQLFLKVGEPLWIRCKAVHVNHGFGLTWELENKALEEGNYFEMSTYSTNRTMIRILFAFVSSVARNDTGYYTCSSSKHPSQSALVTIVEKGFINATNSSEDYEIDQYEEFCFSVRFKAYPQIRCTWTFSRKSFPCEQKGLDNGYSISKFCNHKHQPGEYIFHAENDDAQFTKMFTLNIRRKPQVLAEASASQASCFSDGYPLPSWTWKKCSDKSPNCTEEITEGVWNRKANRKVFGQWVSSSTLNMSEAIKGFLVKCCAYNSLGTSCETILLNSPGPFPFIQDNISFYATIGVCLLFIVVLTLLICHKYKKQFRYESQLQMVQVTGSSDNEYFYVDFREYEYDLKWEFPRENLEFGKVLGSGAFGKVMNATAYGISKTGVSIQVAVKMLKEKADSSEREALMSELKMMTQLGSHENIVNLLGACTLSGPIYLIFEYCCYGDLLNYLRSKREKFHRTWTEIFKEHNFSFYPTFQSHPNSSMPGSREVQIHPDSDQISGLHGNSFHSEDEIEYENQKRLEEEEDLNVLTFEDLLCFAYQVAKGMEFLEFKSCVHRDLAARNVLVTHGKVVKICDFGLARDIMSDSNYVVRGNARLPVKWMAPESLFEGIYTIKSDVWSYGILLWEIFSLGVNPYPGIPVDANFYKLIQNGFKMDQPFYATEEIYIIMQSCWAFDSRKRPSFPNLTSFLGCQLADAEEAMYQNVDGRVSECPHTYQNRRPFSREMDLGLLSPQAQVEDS
The assay is described as follows: FLT3 enzyme activity (IC50). The note with it: read-out: FLT3 IC50. From the text:
(§1) Experimental Example 1. Measurement of FLT3 and FLT Enzyme Activity
(§2) Changes in FLT3 and FLT enzyme activities by treatment with the quinazoline derivatives of the following Table 1 according to the present invention were confirmed by IC50.

Assay [2] concerns the target T2, FLT (ITD) (Homo sapiens, UniProt P36888).
T2 sequence (P36888 1-993): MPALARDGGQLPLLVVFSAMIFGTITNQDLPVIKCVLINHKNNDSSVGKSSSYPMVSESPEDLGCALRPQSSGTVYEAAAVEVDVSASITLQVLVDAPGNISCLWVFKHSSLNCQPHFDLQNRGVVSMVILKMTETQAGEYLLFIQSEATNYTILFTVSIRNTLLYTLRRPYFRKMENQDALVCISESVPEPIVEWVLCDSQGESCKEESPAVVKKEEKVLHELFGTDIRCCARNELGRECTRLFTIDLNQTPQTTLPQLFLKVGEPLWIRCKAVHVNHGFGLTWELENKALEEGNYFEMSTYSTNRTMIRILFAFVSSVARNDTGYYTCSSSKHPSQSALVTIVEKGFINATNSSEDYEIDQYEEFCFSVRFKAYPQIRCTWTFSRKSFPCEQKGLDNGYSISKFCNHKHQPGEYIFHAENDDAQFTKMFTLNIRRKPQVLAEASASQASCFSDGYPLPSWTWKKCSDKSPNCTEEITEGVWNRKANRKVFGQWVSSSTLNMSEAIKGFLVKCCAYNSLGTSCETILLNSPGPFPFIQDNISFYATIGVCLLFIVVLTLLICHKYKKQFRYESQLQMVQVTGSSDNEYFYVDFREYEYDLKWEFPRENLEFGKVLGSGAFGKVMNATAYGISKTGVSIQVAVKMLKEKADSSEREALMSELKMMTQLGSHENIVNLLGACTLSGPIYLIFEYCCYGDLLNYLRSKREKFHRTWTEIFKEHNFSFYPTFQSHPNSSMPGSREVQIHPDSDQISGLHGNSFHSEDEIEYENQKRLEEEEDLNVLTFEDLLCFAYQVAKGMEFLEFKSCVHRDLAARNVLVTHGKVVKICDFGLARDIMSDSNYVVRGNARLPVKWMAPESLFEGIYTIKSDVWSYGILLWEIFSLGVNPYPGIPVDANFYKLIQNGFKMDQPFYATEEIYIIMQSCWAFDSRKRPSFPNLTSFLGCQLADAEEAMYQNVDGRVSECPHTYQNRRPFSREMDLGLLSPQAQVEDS
The assay is described as follows: FLT (ITD) enzyme activity (IC50). The note with it: read-out: FLT (ITD) IC50.
Description: as §1, §2

Assay [3] deals with RIPK3 (Homo sapiens, UniProt Q9Y572). The assay is described as follows: Kinase panel screening. The note with it: read-out: IC50 (nM), data of GW5074, control GW5074 instead of staurosporine. As for the experimental part: Next, kinase panel screening for Compound 7d was investigated for 36 different kinases at a single dose of 10 μM (FIG. 1 and Table 3).
Assay [4] deals with ERK1 (Homo sapiens, UniProt P27361). Nature of the assay: Kinase panel screening. The note with it: control SCH772984 instead of staurosporine.
Sequence of ERK1 (P27361 whole entry, species assumed): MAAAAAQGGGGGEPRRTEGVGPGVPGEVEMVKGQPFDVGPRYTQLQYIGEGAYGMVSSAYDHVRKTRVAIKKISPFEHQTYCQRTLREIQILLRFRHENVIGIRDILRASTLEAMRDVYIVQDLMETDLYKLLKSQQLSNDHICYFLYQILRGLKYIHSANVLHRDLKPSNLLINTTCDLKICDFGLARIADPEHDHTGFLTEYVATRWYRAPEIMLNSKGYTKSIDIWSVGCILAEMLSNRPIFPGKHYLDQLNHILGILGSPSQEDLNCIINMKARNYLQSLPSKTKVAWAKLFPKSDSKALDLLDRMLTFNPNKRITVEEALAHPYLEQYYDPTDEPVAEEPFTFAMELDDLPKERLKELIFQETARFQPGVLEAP

Sequence of RIPK3 (Q9Y572 whole entry, species assumed): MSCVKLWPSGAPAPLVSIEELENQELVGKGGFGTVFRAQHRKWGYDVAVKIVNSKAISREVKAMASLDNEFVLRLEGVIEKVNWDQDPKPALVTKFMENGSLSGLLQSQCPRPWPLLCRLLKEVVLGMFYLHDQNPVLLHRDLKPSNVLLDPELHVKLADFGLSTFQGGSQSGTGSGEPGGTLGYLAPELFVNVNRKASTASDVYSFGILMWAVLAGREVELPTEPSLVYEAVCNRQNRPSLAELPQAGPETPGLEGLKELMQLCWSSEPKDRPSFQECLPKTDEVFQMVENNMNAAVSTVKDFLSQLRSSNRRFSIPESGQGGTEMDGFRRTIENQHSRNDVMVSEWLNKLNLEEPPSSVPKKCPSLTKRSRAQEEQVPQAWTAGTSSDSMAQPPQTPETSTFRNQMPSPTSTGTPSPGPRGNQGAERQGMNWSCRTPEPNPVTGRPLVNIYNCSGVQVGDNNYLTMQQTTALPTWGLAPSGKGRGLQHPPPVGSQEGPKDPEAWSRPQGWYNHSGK

Consider `Cc1oncc1C(=O)Nc1ccc2cnc(Cc3ccc(F)cc3)nc2c1` [Compound 7s, N-(2-(4-fluorobenzyl)quinazolin-7-yl)-5-methylisoxazole-4-carboxamide], for which the IC50 in assay [1] and in assay [2] was greater than 10 µM each time. For `Cc1oncc1C(=O)Nc1ccc2cnc(-c3ccc(Cl)c(C(F)(F)F)c3)nc2c1` [Compound 7g, N-(2-(4-chloro-3-(trifluoromethyl)phenyl)quinazolin-7-yl)-5-methylisoxazole-4-carboxamide], the IC50 in assay [1] and in assay [2] was greater than 10 µM in each case.

Turning to `Cc1oncc1C(=O)Nc1ccc2cnc(-c3cnn(-c4ccccc4)c3C(F)(F)F)nc2c1` [Compound 7h, 5-methyl-N-(2-(1-phenyl-5-(trifluoromethyl)-1H-pyrazol-4-yl)quinazolin-7-yl)isoxazole-4-carboxamide], the IC50 in assay [1] and in assay [2] was greater than 10 µM each time. `Cc1oncc1C(=O)Nc1ccc2cnc(Cc3ccccc3C(F)(F)F)nc2c1` [Compound 7t, 5-methyl-N-(2-(2-(trifluoromethyl)benzyl)quinazolin-7-yl)isoxazole-4-carboxamide]: the IC50 in assay [1] and in assay [2] was greater than 10 µM in each case. Consider `Cc1oncc1C(=O)Nc1ccc2cnc(-c3ccc4ccccc4c3)nc2c1` [Compound 7u, 5-methyl-N-(2-(naphthalen-2-yl)quinazolin-7-yl)isoxazole-4-carboxamide], for which the IC50 in assay [1] and in assay [2] was greater than 10 µM in each case. For the compound `Cc1oncc1C(=O)Nc1ccc2cnc(-c3cccc(Cl)c3)nc2c1` [Compound 7i, N-(2-(3-chlorophenyl)quinazolin-7-yl)-5-methylisoxazole-4-carboxamide], the IC50 in assay [1] and in assay [2] was greater than 10 µM in each case.

For `Cc1oncc1C(=O)Nc1ccc2cnc(-c3cc(N4CCOCC4)cc(C(F)(F)F)c3)nc2c1` [Compound 7b, 5-methyl-N-(2-(3-morpholino-5-(trifluoromethyl)phenyl)quinzolin-7-yl)isoxazole-4-carboxamide], the IC50 in assay [1] and in assay [2] was 3 to 10 µM each time. Consider `Cc1oncc1C(=O)Nc1ccc2cnc(-c3ccc(Cl)c(Cl)c3)nc2c1` [Compound 7r, N-(2-(3,4-dichlorophenyl)quinazolin-7-yl)-5-methylisoxazole-4-carboxamide], for which the IC50 in assay [1] and in assay [2] was greater than 10 µM throughout. As to `CC(=O)N1CCC(c2ncc3ccc(NC(=O)c4cnoc4C)cc3n2)CC1` [Compound 7o, N-(2-(1-acetylpiperidin-4-yl)quinazolin-7-yl)-5-methylisoxazole-4-carboxamide], the IC50 in assay [1] and in assay [2] was greater than 10 µM throughout. For the compound `COc1ccc(/C=C/c2ncc3ccc(NC(=O)c4cnoc4C)cc3n2)cc1` [Compound 7j, (E)-N-(2-(4-methoxystyryl)quinazolin-7-yl)-5-methylisoxazole-4-carboxamide], the IC50 is 3 to 10 µM in assay [1] and greater than 10 µM in assay [2].

Consider `Cc1oncc1C(=O)Nc1ccc2cnc(-c3ccncc3)nc2c1` [Compound 7p, 5-methyl-N-(2-(pyridin-4-yl)quinazolin-7-yl)isoxazole-4-carboxamide], for which the IC50 in assay [1] and in assay [2] was greater than 10 µM in each case. As to `Cc1oncc1C(=O)Nc1ccc2cnc(/C=C/c3ccc(Cl)cc3)nc2c1` [Compound 7k, (E)-N-(2-(4-chlorostyryl)quinazolin-7-yl)-5-methylisoxazole-4-carboxamide], the IC50 in assay [1] and in assay [2] was greater than 10 µM in each case.

As for `Cc1oncc1C(=O)Nc1ccc2cnc(-c3ccc(N4CCOCC4)c(C(F)(F)F)c3)nc2c1` [Compound 7a, 5-methyl-N-(2-(4-morpholino-5-(trifluoromethyl)phenyl)quinazolin-7-yl)isoxazole-4-carboxamide], the IC50 in assay [1] and in assay [2] was greater than 10 µM throughout. Take `Cc1oncc1C(=O)Nc1ccc2cnc(-c3ccccn3)nc2c1` [Compound 7q, 5-methyl-N-(2-(pyridin-2-yl)quinazolin-7-yl)isoxazole-4-carboxamide]: the IC50 in assay [1] and in assay [2] was greater than 10 µM in each case. Take `COc1ccc(CCc2ncc3ccc(NC(=O)c4cnoc4C)cc3n2)cc1` [Compound 7w, N-(2-(4-methoxyphenethyl)quinazolin-7-yl)-5-methylisoxazole-4-carboxamide]: the IC50 in assay [1] and in assay [2] was greater than 10 µM throughout. Regarding `Cc1oncc1C(=O)Nc1ccc2cnc(-c3cc(C(C)(C)C)on3)nc2c1` [Compound 7l, N-(2-(5-(tert-butyl)isoxazol-3-yl)quinazolin-7-yl)-5-methylisoxazole-4-carboxamide], the half-maximal inhibitory concentration (IC50) in assay [1] and in assay [2] was greater than 10 µM throughout. For `Cc1oncc1C(=O)Nc1ccc2cnc(-c3cc(OC4CCN(C)CC4)cc(C(F)(F)F)c3)nc2c1` [Compound 7n, 5-methyl-N-(2-(3-((1-methylpiperidin-4-yl)oxy)-5-(trifluoromethyl)phenyl)quinazolin-7-yl)isoxazole-4-carboxamide], the IC50 in assay [1] and in assay [2] was 3 to 10 µM each time. Take `CCN1CCN(Cc2cc(-c3ncc4ccc(NC(=O)c5cnoc5C)cc4n3)cc(C(F)(F)F)c2)CC1` [Compound 7e, N-(2-(3-((4-ethylpiperazin-1-yl)methyl)-5-(trifluoromethyl)phenyl)quinazolin-7-yl)-5-methylisoxazole-4-carboxamide]: the IC50 was less than 3 µM in assay [1] and 3 to 10 µM in assay [2]. Take `O=C1Nc2ccc(I)cc2/C1=C/c1cc(Br)c(O)c(Br)c1` [GW5074, reference compound]: in assay [3], the IC50 was 1650 nM. As to `Cc1oncc1C(=O)Nc1ccc2cnc(-c3ccc4c(c3)CCO4)nc2c1` [Compound 7v, N-(2-(2,3-dihydrobenzofuran-5-yl)quinazolin-7-yl)-5-methylisoxazole-4-carboxamide], the IC50 in assay [1] and in assay [2] was greater than 10 µM in each case.

Turning to `Cc1oncc1C(=O)Nc1ccc2cnc(-c3cc(F)cc(C(F)(F)F)c3)nc2c1` [Compound 7f, N-(2-(3-fluoro-5-(trifluoromethyl)phenyl)quinazolin-7-yl)-5-methylisoxazole-4-carboxamide], the half-maximal inhibitory concentration (IC50) in assay [1] and in assay [2] was greater than 10 µM in each case.

The compound `O=C(Nc1ccc2[nH]nc(-c3ccncc3)c2c1)[C@@H]1CCN(CC(=O)N2CCN(c3ccc(-c4ncccn4)cc3)CC2)C1` [SCH772984, reference compound] had an IC50 in assay [4] of 4.47 nM.

`Cc1cn(-c2cc(-c3ncc4ccc(NC(=O)c5cnoc5C)cc4n3)cc(C(F)(F)F)c2)cn1` [Compound 7c, 5-methyl-N-(2-(3-(4-methyl-1H-imidazol-1-yl)-5-(trifluoromethyl)phenyl)quinazolin-7-yl)isoxazole-4-carboxamide]: the IC50 in assay [1] and in assay [2] was less than 3 µM each time.
